Consider 11 molecules from PubChem BioAssay (NCI).

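The compound was tested at five concentrations on cells cultured in 96-well plates, with a 48-hour exposure period. GI50 = concentration required for 50% inhibition of growth. Definition used: TGI = concentration required for complete inhibition of growth.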

Among the test systems are SK-MEL-2 melanoma; ACHN renal; UO-31 renal; HOP-62 NSCLC; OVCAR-5 ovarian; COLO 205 colon; LOX IMVI melanoma; SF-295 CNS; TK-10 renal.
Holding throughout (test): NCI anticancer screen, dose series, 48 h

As for `COc1cc(F)ccc1-c1ncnc(Nc2cccc(CS(C)(=N)=O)c2)n1` (stereo unspecified), the GI50 in the experiment on SK-MEL-2 melanoma is 1.08 µM; with ACHN renal it was 0.476 µM; with UO-31 renal, 0.528 µM; in the experiment on HOP-62 NSCLC, 0.564 µM; with OVCAR-5 ovarian, 0.827 µM; in the experiment on COLO 205 colon, 0.4 µM. In addition, in the experiment with LOX IMVI melanoma, the GI50 was 0.373 µM. Further, the TGI in the experiment on SK-MEL-2 melanoma was 3.47 µM; in the experiment on ACHN renal, over 100 µM; in the experiment with UO-31 renal it was over 100 µM; in the experiment on HOP-62 NSCLC, 8.38 µM; with OVCAR-5 ovarian, over 100 µM; in the experiment on COLO 205 colon, 2.18 µM. The TGI in the experiment on LOX IMVI melanoma is over 100 µM.
Turning to `CC1c2c(Cl)nc3ccccc3c2Oc2c1c(Cl)nc1ccccc21`, the TGI in the experiment with SK-MEL-2 melanoma, in the experiment with ACHN renal, in the experiment on UO-31 renal, in the experiment with HOP-62 NSCLC, with SF-295 CNS and in the experiment on OVCAR-5 ovarian was over 100 µM throughout. The TGI with COLO 205 colon, in the experiment with LOX IMVI melanoma and in the experiment on TK-10 renal was over 100 µM throughout.
For `O=C(Nc1ccncc1)C(=O)c1cn(S(=O)(=O)c2ccc(F)cc2)c2ccccc12`, the GI50 in the experiment on SK-MEL-2 melanoma was 4.74 µM; in the experiment with ACHN renal, 5.76 µM; in the experiment with UO-31 renal it was 2.64 µM; in the experiment on HOP-62 NSCLC, 3.02 µM; in the experiment on SF-295 CNS it was 3.01 µM; in the experiment on OVCAR-5 ovarian it was 7.96 µM. Moreover, the GI50 in the experiment on COLO 205 colon was 24.7 µM; in the experiment on LOX IMVI melanoma it was 2.22 µM; in the experiment on TK-10 renal it was 19.2 µM. Besides, the TGI in the experiment with SK-MEL-2 melanoma was 52.9 µM; in the experiment on ACHN renal, over 100 µM; in the experiment on UO-31 renal it was 48.3 µM; with HOP-62 NSCLC it was over 100 µM; in the experiment on SF-295 CNS it was 38.1 µM; in the experiment with OVCAR-5 ovarian, over 100 µM. Moreover, the figures for the TGI with COLO 205 colon, in the experiment on LOX IMVI melanoma and in the experiment with TK-10 renal were over 100 µM, over 100 µM and 72.4 µM, respectively.
`CN(C)CC[PH+](c1ccccc1)c1ccccc1.CN(C)CC[PH+](c1ccccc1)c1ccccc1.[Cl-].[Pd+2]`: the GI50 in the experiment with ACHN renal is over 100 µM; in the experiment on UO-31 renal, over 100 µM; with SF-295 CNS, over 100 µM; in the experiment with OVCAR-5 ovarian, over 100 µM; in the experiment on COLO 205 colon, 80.2 µM; with LOX IMVI melanoma, over 100 µM. The GI50 with TK-10 renal was over 100 µM. Moreover, the TGI with ACHN renal, with UO-31 renal, with SF-295 CNS, in the experiment on OVCAR-5 ovarian, in the experiment with COLO 205 colon and in the experiment on LOX IMVI melanoma was over 100 µM in each case. Also, the TGI in the experiment with TK-10 renal was over 100 µM.
With `COc1ccc2c(c1)C(=O)c1c-2c(N2CCN(C(=O)CNCCNCCO)CC2)nc2ccccc12`, the GI50 is 2.2 µM in the experiment on SK-MEL-2 melanoma; 11 µM in the experiment on ACHN renal; 1.89 µM with UO-31 renal; 12.4 µM in the experiment on SF-295 CNS; 15.4 µM in the experiment on OVCAR-5 ovarian; 2.17 µM in the experiment with COLO 205 colon. Also, the figures for the GI50 in the experiment with LOX IMVI melanoma and with TK-10 renal were 2.18 µM and 13.7 µM, respectively. Also, the TGI with SK-MEL-2 melanoma came out at 4 µM; with ACHN renal it was 24.9 µM; in the experiment on UO-31 renal, 4.54 µM; in the experiment on SF-295 CNS it was 32.3 µM; in the experiment on OVCAR-5 ovarian, 31 µM; in the experiment with COLO 205 colon, 4.19 µM. Moreover, the figures for the TGI in the experiment with LOX IMVI melanoma and in the experiment on TK-10 renal were 4.72 µM and 32.9 µM, respectively.
Consider `O=c1ccn([C@H]2CSC[C@@H](CO)C2)c(=O)[nH]1`, for which the TGI in the experiment with SK-MEL-2 melanoma, in the experiment with ACHN renal, in the experiment with UO-31 renal, in the experiment with HOP-62 NSCLC, in the experiment with OVCAR-5 ovarian and in the experiment on LOX IMVI melanoma was over 100 µM each time. In the experiment with TK-10 renal, this molecule showed a TGI of over 100 µM.
For `CC12CP(=O)(c3ccccc3)CC1C2(Cl)Cl` (stereo unspecified), the TGI with HOP-62 NSCLC, in the experiment with SF-295 CNS, with COLO 205 colon, in the experiment with LOX IMVI melanoma and in the experiment with TK-10 renal was over 100 µM throughout.
As to `O=C1/C(=C/c2ccc3c(c2)OCO3)SC2C=Nc3ccccc3N12` (stereo unspecified), the TGI in the experiment on SK-MEL-2 melanoma, with ACHN renal, in the experiment with UO-31 renal, in the experiment with HOP-62 NSCLC, with SF-295 CNS and in the experiment with OVCAR-5 ovarian was over 100 µM each time. The TGI with COLO 205 colon and in the experiment on TK-10 renal was over 100 µM throughout.
Turning to `CCOC(=O)C(=[N+]=[N-])[Si](C)(C)C`, the TGI in the experiment with SK-MEL-2 melanoma is over 100 µM; with ACHN renal, over 100 µM; in the experiment on HOP-62 NSCLC, 49.7 µM; in the experiment with SF-295 CNS, over 100 µM; with OVCAR-5 ovarian, over 100 µM; in the experiment on COLO 205 colon it was over 100 µM. The TGI in the experiment with LOX IMVI melanoma and in the experiment on TK-10 renal was over 100 µM throughout.
On to `O=C(CCc1n[nH]c(=S)o1)Nc1ccccc1C(F)(F)F`, for which the TGI in the experiment with ACHN renal, in the experiment on UO-31 renal, in the experiment with HOP-62 NSCLC, in the experiment with SF-295 CNS, in the experiment with OVCAR-5 ovarian and in the experiment with COLO 205 colon was over 100 µM in each case. In the experiment with TK-10 renal, this molecule had a TGI of over 100 µM.
`C1=CC(N(c2ccccc2)C2C=CCCC2)CCC1` (stereo unspecified): the TGI in the experiment on ACHN renal, with SF-295 CNS, in the experiment on COLO 205 colon, in the experiment with LOX IMVI melanoma and in the experiment with TK-10 renal was over 100 µM in each case.
